Assay results as given in patent US20250186321A1, “FORMULATION USING AMINO ACID AND CARBOXYLIC ACID, ORGANIC SALT, AND COMPOSITION COMPRISING SAME AND USE THEREOF” (MIYOSHI OIL & FAT CO., LTD., priority 2021, published 2025).
Blank lines part the entries; values can stand above or below the molecule they belong to.

Assays:
[1] = Appearance of formulation (state at 25° C.); type: physicochemical
Method: Formulations 1 to 427 shown in Tables 1A to 1D were prepared by the above-described method using the components (A) and (B) at the compounding molar ratios shown in the tables, and their states at 25° C. were observed.

[2] = Water retention evaluation (moisture reduction rate); type: physicochemical
Method: 80 wt. % aqueous solutions of the formulations (organic salts) of the working examples 428 to 459 and comparative examples 1 to 5 in Tables 2A and 2B were prepared, and the water contents were measured using a Karl Fischer moisture meter (CA-200 manufactured by Mitsubishi Chemical Analytech Co., Ltd.). It was confirmed that the water contents of them were 20.0 wt. % (moisture content before test: A). Each of the 1.0 g samples was added to a screw tube, and left uncovered to stand still for 24 hours in a constant temperature and humidity bath (KCL-2000W manufactured by Tokyo Rikakikai Co., Ltd.) which was set at 35° C. and 25% RH. Moisture contents after being left for 24 hours were measured again (moisture content after test: B) to evaluate their water retention property by using the following formula for calculating the moisture reduction rates. After that, it was left to stand still until the moisture content remained unchanged, and determinations of the hydrate and the number of hydrated water were made based on the final moisture contents. • Moisture content before test: A (%) • Moisture content after test: B (%)

[3] = Appearance of formulation (state at 25° C.); type: physicochemical; details: formulation at the compounding molar ratio listed
[4] = Hygroscopicity evaluation (moisture content); type: physicochemical; details: dried in vacuum at 60° C. for 18 hours, then 1 month at room temperature, Karl Fischer
Method: The working examples 460 to 470 and the comparative example 6 in Table 3 were completely dried in a vacuum dryer at 60° C. for 18 hours, and then left to stand still at room temperature for 1 month whose moisture contents were then measured using a Karl Fischer moisture meter (CA-200 manufactured by Mitsubishi Chemical Analytech Co., Ltd.) to evaluate their hygroscopicity.

[5] = Component (A) amino acid; cited from earlier work
[6] = Tables 1C-1 to 1D, compounding molar ratio (Component (A):Component (B)) 1:1

Compound: N[C@@H](CCC(=O)O)C(=O)O.O=C(O)CCCCC(=O)O [Formulation 418]
state at 25° C. [1, 6]: Solid

Compound: N[C@@H](CCC(=O)O)C(=O)O.O=C(O)CCC(=O)O [Formulation 419]
state at 25° C. [1, 6]: Solid

Compound: N[C@@H](CCC(=O)O)C(=O)O.N[C@@H](CCC(=O)O)C(=O)O [Formulation 420]
state at 25° C. [1, 6]: Solid

Compound: N[C@@H](CCC(=O)O)C(=O)O.O=C(O)/C=C/C(=O)O [Formulation 421]
state at 25° C. [1, 6]: Solid

state at 25° C. [1, 6]: Solid
Compound: NC(CCC(=O)O)C(=O)O.O=C(O)CC(O)C(=O)O (centres unmarked) [Formulation 422]

Compound: N[C@@H](CCC(=O)O)C(=O)O.O=C(O)CC(O)(CC(=O)O)C(=O)O [Formulation 423]
state at 25° C. [1, 6]: Solid

Compound: N[C@@H](CCC(=O)O)C(=O)O.O=C(O)C(O)C(O)C(=O)O [Formulation 424]
state at 25° C. [1, 6]: Solid

Compound: N[C@@H](CCC(=O)O)C(=O)O.O=C(O)c1ccccc1 [Formulation 425]
state at 25° C. [1, 6]: Solid

Compound: N[C@@H](CCC(=O)O)C(=O)O.O=C1O[C@H]([C@@H](O)CO)C(O)=C1O [Formulation 426]
state at 25° C. [1, 6]: Solid

state at 25° C. [1, 6]: Solid
Compound: NC(CCC(=O)O)C(=O)O.O=C1OC(C(O)CO)C(O)=C1O (centres unmarked) [Formulation 427]

Compound: Cl.NCCCC[C@H](N)C(=O)O [Formulation 429]
Moisture eduction rate ([2]; 80 wt. % aqueous solution, 24 hours at 35° C. and 25% RH, calculated from A and B): 68.2% | Moisture content before test (A) ([2]; 80 wt. % aqueous solution, Karl Fischer, before test): 20.0% | Presence or absence of hydrates ([2]; left until the moisture content remained unchanged, based on final moisture content): Absent | state at 25° C. ([3]; Tables 2A/2B): Solid

Hygroscopicity test Moisture content after test [4]: 0.0% | state at 25° C. ([3]; Table 3): Solid
Compound: CCCCCCCC/C=C\CCCCCCCC(=O)[O-].[Na+] [Formulation 433, reference compound]

state at 25° C. ([1]; 25° C.): Solid
Compound: Cl.O=C(O)[C@@H]1CCCN1 [Formulation 437]

state at 25° C. ([1]; 25° C.): Liquid
Compound: O [Formulation 438]

Compound: N[C@@H](CS)C(=O)O [cysteine]
isoelectric points of amino acids (values in parentheses) [5]: (5.07)

Compound: CSCC[C@H](N)C(=O)O [methionine]
isoelectric points of amino acids (values in parentheses) [5]: (5.74)

Compound: N[C@@H](Cc1ccccc1)C(=O)O [phenylalanine]
isoelectric points of amino acids (values in parentheses) [5]: (5.48)

Compound: O=C(O)[C@@H]1CCCN1 [proline]
isoelectric points of amino acids (values in parentheses) [5]: (6.30)

Compound: N[C@@H](Cc1c[nH]c2ccccc12)C(=O)O [tryptophan]
isoelectric points of amino acids (values in parentheses) [5]: (5.89)
